Laboratory results from patent US20060264508A1, “Modulation of ocular growth and myopia by gaba drugs” (priority 2001, published 2006).
“And” between values parts separate entries of the source, which are not always exact repeats. Identical values can stand only once. “Also recorded” adds a separate entry of the source. Counter-ions that a name gives are not always drawn. Like-named read-outs stand apart in the source and are kept apart here.

Columns and labels:
[1] = system: goggled eyes (form-deprivation myopia); details: daily intravitreal injection, result in words
non-goggled eyes = type: in vivo, White leghorn chicks; details: for Equatorial diameter (calipers) / axial length calipers / axial length ultrasound / refraction / vitreous chamber depth (ultrasound): daily intravitreal dose(s) at which drug-treated differ from contralateral vehicle-treated eyes (P<0.05, Tukey test)
Description: Chicks were anesthetized with inhalation ether for all goggle applications and drug injections. The experimental eye was the right eye in half of the chicks, and the left eye in the other half of the chicks, assigned in an alternating order within each group. Form-deprivation myopia was induced by attaching a unilateral translucent white plastic goggle to the periorbital feathers with cyanoacrylate glue. All research conformed with the ARVO Resolution on the Use of Animals in Ophthalmic and Vision Research.
All goggle applications and/or drug injections began when the chicks reached one week of age. At about four hours into the light phase, a 10 μl intravitreal injection of either drug+vehicle or vehicle alone was given under aseptic conditions to the goggled or experimental non-goggled eye, with all contralateral eyes concurrently receiving vehicle injections.
On this day, the animals received no intraocular injections. […] While still under general anesthesia, the chicks were decapitated; and the axial and equatorial dimensions of enucleated eyes were measured with digital calipers. As the coronal profile of the chick eye is elliptical, the equatorial dimension was reported as the mean of the shortest and longest equatorial dimensions.
For goggled chicks, the primary measure of outcome was the drug effect on the ocular response to wearing a goggle, and comparisons of individual doses to each other and to vehicle-treated controls for each drug. Differences in refraction and each size measurement between goggled and contralateral eyes were assessed by one-way analysis of variance (ANOVA). For non-goggled chicks, the primary outcome measure was comparison of drug-treated to contralateral vehicle-treated eyes using a two-way repeated measures ANOVA (one factor replication, using eye as the replicated factor) for refractions and measurements.
The statistical outcomes with the two-way ANOVA are mainly described by the drug-treated to contralateral eye comparison. […] When the ANOVA assumptions of normality or equal variance were not met, the corresponding ANOVA on ranks was used. […] The Figures show the P values when the overall ANOVA reached a significance level of at least P<0.05, and the post-hoc tests for within group comparisons appear in the Tables that follow.

[2] = non-goggled eyes, drug-treated vs contralateral vehicle-treated eyes, result in words
[3] = non-goggled chicks receiving the 10 μg dose, mean±S.E.M.
[4] = non-goggled chicks, 10 μg dose, mean±S.E.M.
[5] = non-goggled eyes, drug-treated vs contralateral vehicle-treated eyes, result in words, listed as muscimol, hydrobromide

Structure (SMILES) | effect on axial dimensions (axial length, vitreous chamber depth; ultrasound or calipers) of goggled eyes [1] | effect on myopic refraction of goggled eyes [1] | overall effect on form-deprivation myopia (refraction and size measurements) of goggled eyes [1] | axial length calipers (non-goggled eyes; non-goggled eyes) | axial length ultrasound (non-goggled eyes; non-goggled eyes) | refraction (non-goggled eyes; non-goggled eyes) | vitreous chamber depth (ultrasound) (non-goggled eyes; non-goggled eyes) | effect on axial growth / axial length and vitreous chamber depth of non-goggled eyes (non-goggled eyes; [2]) | effect on refraction of non-goggled eyes (non-goggled eyes; [2]) | other results
NC[C@H](CC(=O)O)c1ccc(Cl)cc1 [Baclofen, R(+)-baclofen] | neither the ultrasound nor the caliper measurements revealed statistically significant growth inhibition | partially reduced the myopic refractive error | weak anti-myopia effect | * (P < 0.05 by ANOVA for drug-treated vs. contralateral eyes, but no specific pair-wise comparison identified by the Tukey test.) | n.s. (n.s., P ≧ 0.05 by ANOVA) | n.s. (n.s., P ≧ 0.05 by ANOVA) | 100 µg | modest deepening of the vitreous chamber | None of the other effects of baclofen on the non-goggled eyes, including refractions (data not shown), reached statistical significance | Equatorial diameter (calipers) (non-goggled eyes; non-goggled eyes): n.s. (n.s., P ≧ 0.05 by ANOVA)
NCC(O)(CS(=O)(=O)O)c1ccc(Cl)cc1 (stereo not shown) [2OH-saclofen, 2-hydroxysaclofen] | none of the tendencies of either drug to reduce ocular dimensions by ultrasound or calipers reached statistical significance | reduced the myopic refractions |  |  |  |  |  |  |  | 
NC/C=C\C(=O)O [CACA, cis-4-aminocrotomc acid] | not accompanied by any statistically identifiable changes in axial measurements | modest, perhaps biphasic effect | none of the size measurements were altered | n.s. (n.s., P ≧ 0.05 by ANOVA) | 50 µg | n.s. (n.s., P ≧ 0.05 by ANOVA) | n.s. (n.s., P ≧ 0.05 by ANOVA) | slightly stimulated axial length by ultrasound; also recorded: stimulate axial growth to a modest degree | not affecting refraction; also recorded: without altering refraction | effect on equatorial diameter / equatorial expansion of goggled eyes (calipers) [1]: no change in the equatorial dimension; anterior chamber depth of contralateral vehicle-treated eyes (non-goggled eyes; [3]): 1.31±0.03 mm; lens thickness of contralateral vehicle-treated eyes (non-goggled eyes; [3]): 2.22±0.02 mm; anterior chamber depth of drug-treated eyes (non-goggled eyes; [4]): 1.32±0.03 mm; lens thickness of drug-treated eyes (non-goggled eyes; [4]): 2.22±0.02 mm; lens thinner in contralateral vehicle-treated eyes at 10 μg than in the other two cohorts (100 or 200 μg) (non-goggled eyes; non-goggled chicks, contralateral vehicle-treated eyes): 0.10 mm; anterior chambers deeper at the 10 μg dose than at the higher doses (non-goggled eyes; non-goggled chicks, drug- and vehicle-treated eyes, vs 50, 100 or 200 μg): 0.08-0.14 mm; lens thinner in drug-treated eyes at 10 μg than at the 100 or 200 μg doses (non-goggled eyes; non-goggled chicks, drug-treated eyes): 0.16 mm; Equatorial diameter (calipers) (non-goggled eyes; non-goggled eyes): n.s. (n.s., P ≧ 0.05 by ANOVA); effect on equatorial diameter of non-goggled eyes (non-goggled eyes; [2]): without altering refraction or affecting equatorial diameter; effect on lens thickness / anterior chamber depth, drug-treated vs vehicle-treated eyes (non-goggled eyes; non-goggled eyes, primary outcome comparison, result in words): did not affect lens thickness or anterior chamber depth
NCc1cc(=O)[nH]o1 [Muscimol, Muscimol hydrobromide] |  |  | did not affect refraction, ultrasound or caliper measurements |  |  |  |  |  |  | refraction of contralateral vehicle-treated eyes (non-goggled eyes; non-goggled chicks, 5 μg daily dose to the other eye, mean±S.E.M.): 0.86±0.58 D; refraction of contralateral vehicle-treated eyes (non-goggled eyes; non-goggled chicks, 10 μg daily dose to the other eye, mean±S.E.M.): +0.11±0.82 D; refraction of contralateral vehicle-treated eyes (non-goggled eyes; non-goggled chicks, 50 μg daily dose to the other eye, mean±S.E.M.): 1.78±1.21 D; refraction of contralateral vehicle-treated eyes (non-goggled eyes; non-goggled chicks, 200 μg daily dose to the other eye, mean±S.E.M.): 3.82±0.83 D; dose of maximum effect on refraction (shift to myopia) of non-goggled eyes (non-goggled eyes; non-goggled eyes, daily intravitreal injection): 50 µg; effect on refraction of non-goggled eyes (non-goggled eyes; non-goggled eyes, drug-treated vs contralateral vehicle-treated eyes, result in words, hydrobromide): induces a statistically significant myopic shift in refraction; effect on axial growth / axial length and vitreous chamber depth of non-goggled eyes (non-goggled eyes; [5]): stimulated axial growth as measured by either ultrasound or calipers, and deepened the vitreous chamber; also recorded: increasing not only axial and vitreous chamber lengths; effect on equatorial diameter of non-goggled eyes (non-goggled eyes; [5]): increased the equatorial diameter; also recorded: expanding the equatorial diameter; effect on refraction of non-goggled eyes (non-goggled eyes; [5]): shifted the refraction to myopia; also recorded: statistically significant shift in refraction
NC/C=C/C(=O)O [TACA, Trans-4-aminocrotonic acid] |  |  | no statistically significant effects |  |  |  |  |  |  | overall effect on refraction and ocular size / eye growth of non-goggled eyes (non-goggled eyes; [2]): influenced neither refraction nor ocular size measurements
CP(=O)(O)C1=CCNCC1 [TPMPA, (1,2,5,6-tetraliydro-pyridine-4-yl) methyiphosphinic acid] | blocked the axial and vitreous chamber elongation as measured by ultrasound; also recorded: effects on axial growth as measured by calipers, did not reach statistical significance; also recorded: significantly reduces the axial length of the eye and vitreous chamber depth | reduced the myopic refraction; also recorded: largely eliminates the myopic refractive shift | potent anti-myopia effects | 200 & μg and 100 μg | 10 µg | § (P < 0.05 by ANOVA for overall dose effect, but no significant effect identified for drug-treated vs. contralateral eyes; no specific pairwise comparison identified by the Tukey test.) | * (P < 0.05 by ANOVA for drug-treated vs. contralateral eyes, but no specific pair-wise comparison identified by the Tukey test.) | stimulated both axial growth and vitreous chamber length; also recorded: stimulates axial elongation and vitreous chamber depth | slight myopic refractive shift; also recorded: without altering refraction | effect on equatorial diameter / equatorial expansion of goggled eyes (calipers) [1]: blocked the axial and vitreous chamber elongation as measured by ultrasound, and the equatorial expansion; effect on equatorial diameter of non-goggled eyes (non-goggled eyes; [2]): reduced the equatorial diameter; also recorded: equatorial dimension actually diminished
CC1(C)CO[C@@H](CC(=O)O)CN1 [SCH50911, (+)-(2S)-5,5-dimethyl-2-morpholineacetic acid] | none of the tendencies of either drug to reduce ocular dimensions by ultrasound or calipers reached statistical significance | reduced the myopic refractions |  |  |  |  |  |  |  | 
CCOC(OCC)P(=O)(O)CCCN [CGP35348, (3-aminopropyl)(diethoxy-methyl)phosphinic acid] |  |  | no statistical effect |  |  |  |  |  |  | 
